Assay results as given in US20050038058A1, “Novel compounds and methods for therapy” (Institute of Organic Chemistry and Biochemistry, priority 2001, published 2005).
In brackets after ≈: the same amount, converted by molar mass.

Legend:
[1] = test system: monocyte/macrophages (M/M); assay: Cell viability in monocyte/macrophages (M/M); type: cell-based, human; conditions: reduction of cell viability; Table 2
CEM cells = assay: Inhibition of CEM cell growth (cytostatic activity); type: cell-based
Experimental: (§1) Cytostatic and antimetabolic effect of acyclic nucleoside phosphonates in vitro. The assays to examine the inhibition of CEM cell growth by the test compounds have been described previously (Balzarini et al., AIDS 5:21-28, 1991). The 50% cytostatic concentration (CC50) was defined as the concentration of compound that reduced the number of living cells by 50% . To measure MT-4 cell toxicity of the test compounds, 5×10^4 MT-4 cells were incubated in the wells of 96-well microplates in the presence or absence of different concentrations of the test compounds for 5 days at 37° C. The CC50 was then calculated from the number of living cells counted under a microscope by the trypan blue exclusion method.

CrFK cells = assay: Toxicity in CrFK cells; type: cell-based, feline; conditions: Table 2
FIV (strain Petaluma) = assay: Anti-FIV assay, p24 antigen in CrFK cells; type: cell-based; conditions: Table 2; for EC50: Feline immunodeficiency virus, CRFK
Experimental: For the anti-FIV assays, 10^5 CrFK cells were seeded onto 24-well tissue culture plates. Cells were cultured with 2 ml of culture medium/well containing 2.5% of fetal calf serum in the presence of various drug concentrations. The assays were carried out in triplicate. After a 1-hr incubation period at 37° C., cells were infected with FIV. Virus was left in contact with the cultures for 1 day, after which the medium was removed and new medium containing the appropriate drug concentrations was added. After 6 days, the presence of FIV p24 antigen was examined by an antigen capture assay.

PBL = assay: Cell viability in PBL; type: cell-based; conditions: reduction of cell viability; Table 2
MT-4 cells = assay: MT-4 cell toxicity (trypan blue exclusion); type: cell-based; conditions: reduction of cell viability; Table 2
Experimental: as §1

HIV = assay: Anti-HIV activity across HIV-1 and HIV-2 in CEM and MT-4 cell cultures; type: cell-based; conditions: HIV-1 and HIV-2 in CEM and MT-4 cells; for EC50: Human immunodeficiency virus 1, MT4, read-out: EC50 values for HIV (range over virus/cell systems)
Experimental: In vitro antiviral assays. The activity against HIV-1- and HIV-2-induced cytopathicity was examined in MT-4 cell cultures at day 5 post infection and based on the determination of cell viability by trypan blue dye staining or in CEM cell cultures at day 4 to 5 post infection and based on the microscopical examination of virus-induced giant cell formation. HIV-1 and HIV-2 were added at 100 CCID50 to the cell cultures.

[2] = Cell viability in monocyte/macrophages (M/M); type: cell-based, human; conditions: human
[3] = Inhibition of CEM cell growth (cytostatic activity); type: cell-based; conditions: human
Experimental: as §1

Cell viability in PBL = type: cell-based; conditions: human, reduction of cell viability, Table 2
HSV-2 (G) = assay: Antiviral activity, HSV-2 (G), Table 1a; type: cell-based
CMV Davis = assay: Antiviral activity, CMV Davis, Table 1a; type: cell-based
VZV TK + YS = assay: Antiviral activity, VZV TK+ YS, Table 1a; type: cell-based
HSV-1 (KOS) = assay: Antiviral activity, HSV-1 (KOS), Table 1a; type: cell-based
HIV-2 = assay: Antiviral activity, HIV-2, Table 1a; type: cell-based
CMV AD-169 = assay: Antiviral activity, CMV AD-169, Table 1a; type: cell-based
HSV-1 TK- VMW 1837 = assay: Antiviral activity, HSV-1 TK- VMW 1837, Table 1a; type: cell-based
VZV TK − 07/1 = assay: Antiviral activity, VZV TK- 07/1, Table 1a; type: cell-based
VZV TK + OKA = assay: Antiviral activity, VZV TK+ OKA, Table 1a; type: cell-based
MSV = assay: Antiviral activity, MSV, Table 1a; type: cell-based
VZV TK − YS/R = assay: Antiviral activity, VZV TK- YS/R, Table 1a; type: cell-based
[4] = 50% cytostatic concentration, CEM cell proliferation, Table 1
[5] = inhibition of cell proliferation, Table 2
[6] = CEM cells, 50% cytostatic concentration, CEM cell proliferation, Table 1, read-out: CC50 (CEM)
[7] = CEM cells, inhibition of cell proliferation, Table 2, read-out: CC50 CEM
[8] = CEM cells, read-out: CC50 for CEM cells

SMILES | CC50 M/M [1] [µg/mL] | CC50 (CEM) (CEM cells; [4]) [µg/mL] | CC50 (CEM) (CEM cells; [5]) [µg/mL] | CC50 CrFK (CrFK cells) [µg/mL] | EC50 FIV (CrFK) (FIV (strain Petaluma)) [µg/mL] | CC50 PBL (PBL) [µg/mL] | CC50 MT-4 (MT-4 cells) | CC50 [3, 6] [µg/mL] | CC50 [3, 7] [µg/mL] | CC50 [3, 8] [µg/mL] | EC50 (FIV (strain Petaluma)) [µg/mL] | EC50 (HIV) [µg/mL] | further results
C[C@H](Cn1cnc2c(N)ncnc21)OCP(=O)(O)O [(R)-PMPA, (R)-9-[(2-phosphonomethoxy)-propyl]adenine, reference compound] | >100 | 125 (≈ 435 µM) | 125 ± 26 (≈ 435 µM) | >100 | 0.13 (≈ 0.453 µM) | >100 | 72 ± 12 µg/mL (≈ 251 µM) | – | – | – | – | – | EC50 values for HIV (range over virus/cell systems) (HIV): 0.36 to 0.52 µg/mL
Nc1cc(OCCOCP(=O)(O)O)nc(N)n1 [Compound 1, 2,4-diamino-6-[2-(phosphonomethoxy)ethoxy]pyrimidine] | – | – | – | – | – | – | – | 11 (≈ 41.6 µM) | 11 ± 2 (≈ 41.6 µM) | 11 (≈ 41.6 µM) | 0.25 ± 0.01 (≈ 0.946 µM) | 0.29 to 0.8 (≈ 1.1 to 3.03 µM) | CC50 [2]: > 100 µg/mL; CC50 (Cell viability in PBL; PHA-stimulated peripheral blood mononuclear cells (PBL)): 2.2 ± 0.8 µg/mL (≈ 8.33 µM)
Nc1cc(SCCOCP(=O)(O)O)nc(N)n1 [Compound 2, 2,4-diamino-6-{[2-(phosphonomethoxy)ethyl]-sulfanyl}pyrimidine] | – | – | – | – | – | – | – | 64 (≈ 228 µM) | 64 ± 9.8 (≈ 228 µM) | ~60 (≈ 214 µM) | 0.97 ± 0.4 (≈ 3.46 µM) | – | –
C[C@H](COc1cc(N)nc(N)n1)OCP(=O)(O)O [Compound 11, 2,4-diamino-6-(R)-[2-(phosphonomethoxy)propoxy]pyrimidine] | >100 | 62 (≈ 223 µM) | 62 ± 25 (≈ 223 µM) | >100 | 0.66 ± 0.14 (≈ 2.37 µM) | 9.6 ± 2.5 (≈ 34.5 µM) | ≧100 μg/ml | – | – | – | – | – | Antiviral Activity EC50 HSV-2 (G) (HSV-2 (G)): 48 µg/mL; CC50 for CEM cells (CEM cells): around 60 μg/mL; Antiviral Activity EC50 HIV-1 (HIV-1): 1.9 µg/mL; Antiviral Activity EC50 CMV Davis (CMV Davis): >50 µg/mL; Antiviral Activity EC50 VZV TK + YS (VZV TK + YS): 5.9 µg/mL; Antiviral Activity EC50 HSV-1 (KOS) (HSV-1 (KOS)): 16 µg/mL; Antiviral Activity EC50 HIV-2 (HIV-2): 1.3 µg/mL; Antiviral Activity EC50 CMV AD-169 (CMV AD-169): >50 µg/mL; Antiviral Activity EC50 HSV-1 TK- VMW 1837 (HSV-1 TK- VMW 1837): 9.6 µg/mL; Antiviral Activity EC50 VZV TK − 07/1 (VZV TK − 07/1): 6.3 µg/mL; Antiviral Activity EC50 VZV TK + OKA (VZV TK + OKA): 3.8 µg/mL; Antiviral Activity EC50 MSV (MSV): 0.05 µg/mL; Antiviral Activity EC50 VZV TK − YS/R (VZV TK − YS/R): 5.7 µg/mL
Nc1ncnc2c1ncn2CCOCP(=O)(O)O [PMEA, 9-[(2-phosphono-methoxy)ethyl]adenine, reference compound] | – | – | – | – | – | – | – | – | – | – | 0.46 ± 0.19 (≈ 1.68 µM) | 0.96 to 2 (≈ 3.51 to 7.32 µM) | CC50 ([2]; reduction of cell viability, Table 2, read-out: CC50 M/M): > 100 µg/mL; CC50 ([3]; 50% cytostatic concentration, CEM cell proliferation, Table 1, read-out: CC50 (CEM)): 16 µg/mL (≈ 58.6 µM); CC50 (Cell viability in PBL): 1.7 ± 0.4 µg/mL (≈ 6.22 µM)
